In patent publication US8178506B2, “Oligomeric compounds and compositions for use in modulation of small non-coding RNAs” (Regulus Therapeutics Inc., priority 2003, dated 2012):
In the oligonucleotide strings, read from the 5' end, every base follows the letter of its sugar. An asterisk marks phosphorothioate; unmarked linkages are phosphodiester. Other units and linkages are bracketed, terminal groups are in braces. A string of capitals states the bases alone. e = 2'-O-(2-methoxyethyl) (MOE); [5mC] = 5-methylcytosine; d = 2'-deoxy (DNA)

How the values were obtained:
HuVECs = assay: Endothelial tube formation assay in HuVECs; conditions: 75 nM oligomeric compound, Table 56
PEPCK-c = PEPCK-c mRNA expression in HepG2 cells; assay type: cell-based, human; conditions: for PEPCKc mRNA expression: Experiment 2, insulin treated: HepG2 cells transfected with oligomeric compound, 1 nM insulin for four hours, UTC + 1 nM insulin = 100
Protocol: (§1) Approximately 28 hours after transfection, the cells are subjected to serum starvation for a period of 12 to 16 hours, using serum-free growth medium. Following serum starvation, cells are treated with 1 nM insulin (insulin-treated) or are left untreated (basal conditions) for approximately four hours. At the same time, untreated control cells in both plates are treated with 100 nM insulin to determine the maximal insulin response. Following insulin treatment (forty-eight hours after transfection), total RNA is harvested from all samples, and the amount of total RNA from each sample is determined using a Ribogreen assay (Invitrogen Corporation, Carlsbad, Calif.). Real-time PCR is performed on the total RNA samples using primer/probe sets for three insulin responsive genes: insulin-like growth factor binding protein-1 (IGFBP-1), cytosolic PEPCK (PEPCK-C), and follistatin. Gene expression levels obtained by real-time PCR are normalized for total RNA content in the samples.
(§2) Oligomeric compounds of the present invention were tested for their effects on insulin signaling in HepG2 cells. HepG2 cells were plated at 7500 cells/well in collagen coated 96-well plates. The following day, cells were transfected with oligomeric compounds targeting miRNAs using 100 nM oligomeric compound in LIPOFECTIN™ (Invitrogen Corporation, Carlsbad, Calif.) in two 96-well plates. The oligomeric compounds were tested in triplicate on each 96-well plate, except for positive and negative controls, which were measured up to six times per plate. At the end of transfection, the transfection medium was replaced by regular growth medium. Twenty-eight hours post-transfection, the cells were subjected to overnight (sixteen to eighteen hours) serum starvation using serum free growth medium. Forty-four hours post-transfection, the cells in the transfected wells were treated with either no insulin (“basal” Experiment 1, for identification of insulin-mimetic compounds) or with 1 nM insulin (“insulin treated” Experiment 2, for identification of insulin sensitizers) for four hours. At the same time, in both plates, cells in some of the un-transfected control wells are treated with 100 nM insulin to determine maximal insulin response. At the end of the insulin or no-insulin treatment (forty-eight hours post-transfection), total RNA is isolated from both the basal and insulin treated (1 nM) 96-well plates, and the amount of total RNA from each sample is determined using a Ribogreen assay (Molecular Probes, Eugene, Oreg.). Real-time PCR is performed on all the total RNA samples using primer/probe sets for three insulin responsive genes: PEPCK-c, IGFBP-1 and follistatin. Expression levels for each gene are normalized to total RNA, and values+standard deviation are expressed relative to the transfectant only untreated control (UTC) and negative control compounds.
(§3) Protocols for treatment of HepG2 cells and transfection of oligomeric compounds are as described in Example 18. Also as described in Example 18, forty-four hours post-transfection, the cells in the transfected wells were treated with either no insulin (“basal” Experiment 3 (below), for identification of insulin-mimetic compounds) or with 1 nM insulin (“insulin treated” Experiment 4 (below), for identification of insulin sensitizers) for four hours. At the same time, in both plates, cells in some of the un-transfected control wells are treated with 100 nM insulin to determine maximal insulin response. At the end of the insulin or no-insulin treatment (forty-eight hours post-transfection), total RNA is isolated from both the basal and insulin treated (1 nM) 96-well plates, and the amount of total RNA from each sample is determined using a Ribogreen assay (Molecular Probes, Eugene, Oreg.).

IGFBP-1 = IGFBP-1 mRNA expression in HepG2 cells; assay type: cell-based, human; conditions: for IGFBP1 mRNA expression: Experiment 2, insulin treated: HepG2 cells transfected with oligomeric compound, 1 nM insulin for four hours, UTC + 1 nM insulin = 100
Protocol: as §1, §2, §3

follistatin = assay: Follistatin mRNA expression in HepG2 cells; assay type: cell-based, human; conditions: for Follistatin mRNA expression: Experiment 2, insulin treated: HepG2 cells transfected with oligomeric compound, 1 nM insulin for four hours, UTC + 1 nM insulin = 100
Protocol: as §1, §2, §3

[1] = tested on: BJ, B16-F10, T47D, T47Dp53 and HeLa cells; assay: Cell cycle assay (propidium iodide flow cytometry), cell line panel; assay type: cell-based; conditions: 150 nM oligomeric compound, 4.5 μg/ml LIPOFECTIN, after 72 hours, propidium iodide flow cytometry
HeLa cells = assay: Cell cycle assay in HeLa cells; assay type: cell-based, human; conditions: HeLa cells; for % cells in cell cycle phase: G1 / % cells in cell cycle phase: G2/M / % cells in cell cycle phase: S / % cells in cell cycle phase: aneuploid / % cells in cell cycle phase: subG1: 48 hours after treatment, relative to untreated control (UTC=100)
T47D cells = assay: Caspase-3 activity assay (apoptosis) in T47D cells; conditions: T47D cells, 48 hours; for Fold Increase over UTC (caspase-3 activity, apoptosis): 200 nM oligomeric compound
[2] = 150 nM oligomeric compound, 24 hours, relative to untreated control (UTC = 100)
[3] = 150 nM, 48 hours, relative to untreated control
[4] = Experiment 3, basal (no insulin), HepG2 cells, 48 hours post-transfection
[5] = Experiment 4, insulin-sensitization: HepG2 cells treated with 1 nM insulin for four hours, 48 h post-transfection, mRNA by real-time PCR

Substance | PEPCKc mRNA expression (PEPCK-c) | IGFBP1 mRNA expression (IGFBP-1) | Follistatin mRNA expression (follistatin) | G1 (percentage of cells in phase of the cell cycle) [1] [%] | G2/M (percentage of cells in phase of the cell cycle) [1] [%] | S (percentage of cells in phase of the cell cycle) [1] [%] | SubG1 (percentage of cells in phase of the cell cycle) [1] [%] | aneuploid (percentage of cells) [1] [%] | % cells aneuploid (HeLa cells; [2]) [%] | % cells in cell cycle phase G1 (HeLa cells; [2]) [%] | % cells in cell cycle phase G2/M (HeLa cells; [2]) [%] | % cells in cell cycle phase S (HeLa cells; [2]) [%] | % cells in cell cycle phase subG1 (HeLa cells; [2]) [%] | % cells in cell cycle phase: G1 (HeLa cells; 150 nM oligomeric compound) [%] | % cells in cell cycle phase: G2/M (HeLa cells; 150 nM oligomeric compound) [%] | % cells in cell cycle phase: S (HeLa cells; 150 nM oligomeric compound) [%] | % cells in cell cycle phase: aneuploid (HeLa cells; 150 nM oligomeric compound) [%] | % cells in cell cycle phase: subG1 (HeLa cells; 150 nM oligomeric compound) [%] | also measured
327875 (antisense eA*e[5mC]*eA*eA*e[5mC]*e[5mC]*eA*eG*e[5mC]*eT*eA*eA*eG*eA*e[5mC]*eA*e[5mC]*eT*eG*e[5mC]*e[5mC]*eA) [compound 327875] | – | – | – | – | – | – | – | – | – | – | – | – | – | – | – | – | – | – | % Activity Relative to UTC (tube formation) (HuVECs): 71.4%
328342 (e[5mC]*eA*eA*eT*eT*dG*d[5mC]*dG*d[5mC]*dT*dA*d[5mC]*dA*dG*dA*eA*e[5mC]*eT*eG*eT) [compound 328342] | 39 | 98 | 88 | 62.3 | 12.8 | 24.9 | 4.8 | 15.2 | 67 | 33 | 238 | 95 | 192 | 55 | 225 | 115 | 107 | 189 | % cells in cell cycle phase G1 (HeLa cells; [3]): 96%; % cells in cell cycle phase G2/M (HeLa cells; [3]): 138%; % cells in cell cycle phase S (HeLa cells; [3]): 89%; % cells in cell cycle phase aneuploid (HeLa cells; [3]): 96%; % cells in cell cycle phase subG1 (HeLa cells; [3]): 103%
328377 (eT*e[5mC]*eA*e[5mC]*eT*d[5mC]*d[5mC]*dT*dA*dA*dA*dG*dG*dT*dT*e[5mC]*eA*eA*eG*eT; antisense) [compound 328377] | 182 | 247 | 159 | – | – | – | – | – | – | – | – | – | – | – | – | – | – | – | Fold Increase over UTC (caspase activity) (T47D cells; 200 nM, relative to untreated control): 0.7
328384 (eT*e[5mC]*eA*e[5mC]*eG*dT*dG*dG*dA*dG*dA*dG*dG*dA*dG*eT*eT*eA*eA*eA; antisense) [compound 328384] | – | – | – | – | – | – | – | – | – | – | – | – | – | – | – | – | – | – | PEPCK-c (% UTC) (PEPCK-c; [4]): 142 % UTC; PEPCK-c (% UTC) (PEPCK-c; [5]): 114 % UTC; IGFBP-1 (% UTC) (IGFBP-1; [4]): 139 % UTC; IGFBP-1 (% UTC) (IGFBP-1; [5]): 102 % UTC; Follistatin (% UTC) (follistatin; [4]): 110 % UTC; Follistatin (% UTC) (follistatin; [5]): 121 % UTC; Fold Increase over UTC (caspase-3 activity, apoptosis) (T47D cells; experiment of Table 11): 1.0 fold
328396 (antisense e[5mC]*eT*eG*eG*eT*dT*dG*dG*dG*dT*dA*dT*dG*dA*dG*eA*e[5mC]*eA*eG*eA) [compound 328396] | 65 | 128 | 135 | 56.8 | 15 | 28.2 | 4.6 | 19.8 | 88 | 94 | 139 | 87 | 97 | 89 | 119 | 114 | 129 | 88 | Fold Increase over UTC (caspase-3 activity, apoptosis) (T47D cells; experiment of Table 12): 0.8 fold
